“And” between values parts separate entries of the source, which are not always exact repeats. Identical values can stand only once.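 These data come from cells grown in 96-well plates and exposed to compound for 48 hours at five concentrations. GI50 marks 50% less growth. TGI: total growth inhibition.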 Bounds are passed on as bounds.

The test system of the first experiment is LXFL 529 NSCLC. Kind of experiment: NCI tumour cell line growth inhibition, 48 h.
Compound `COc1nc(N)c(C(=O)CCl)c(=O)n1C` gave a TGI of 27.1 µM.

The compound `CC1C=C(CCCCCCCCCCCC[C@@H](O)[C@@H]2CC[C@@H]([C@@H]3CC[C@@H](C(O)CCCCCCCCCCCCC4=C[C@H](C)OC4=O)O3)O2)C(=O)O1` (some centres not stated) had a TGI above 100 µM.

For `O=C1c2ccccc2C2C1N2C(=O)C(F)(F)F` (configuration not stated), the TGI is above 100 µM.

Turning to `CCOC(=O)C1=C(C)NC(=S)NC1c1ccccc1` (configuration not stated), the TGI was above 100 µM.

`CCC12C=CCN3CCC4(C(=C(C(=O)OC)[C@@H]1O)Nc1ccccc14)C32` (some centres not stated) registered a TGI of 3.13 µM.

As for `CC(=O)Nc1ccc(-c2nnc(SCC(=O)Nc3ccc([N+](=O)[O-])cc3)o2)cc1`, the TGI was 20.4 µM.

The subject of another experiment is M19-MEL melanoma. Kind of experiment: NCI tumour cell line growth inhibition, 48 h.
Take `COc1cc([C@@H]2OCC3C(c4ccc5c(c4)OCO5)OCC32)cc(OC)c1OC` (some centres not stated): the TGI was above 100 µM.

With `O=C1CCC23CC(C=CC=C12)n1c(=O)n(-c2ccccc2)c(=O)n13` (configuration not stated), the TGI was above 100 µM.

In turn, `C[C@]12CC[C@H](O)CC1=CC[C@@H]1C2CC[C@]2(C)C(=O)N(N)C(=O)CC12` (some centres not stated) returned a TGI above 100 µM.

Regarding `Cc1c2cnccc2c(C)c2c1c1ccccc1n2CCCN`, the TGI worked out at 0.915 µM.

The compound `N#CN=C(N(Cc1ccccc1)Cc1ccccc1)N(Cc1ccccc1)Cc1ccccc1` returned a TGI above 100 µM.

Turning to `[N-]=[N+]=Nc1cc(=O)oc2ccccc12`, the TGI is above 100 µM.

In turn, `CNC(=O)C(C)C1CCC2(C)C=CC(=O)C(C)=C2C1O` (configuration not stated) displayed a TGI above 100 µM.

Regarding `CCN(CC)CCC(=O)Nc1ccc2c(c1)C(=O)c1ccc(NC(=O)CCN(CC)CC)cc1C2=O`, the TGI was above 100 µM.

Regarding `CC(C)CCCCCCCCCCCCC(=O)NCC(=O)NC1C(C)OC(Nc2ncnc3c2ncn3C)C(O)C1O` (configuration not stated), the TGI was above 100 µM.

Turning to `CCCCCCCCCCCOc1ccc(C(=O)C(=O)c2ccc(OCCCCCCCCCCC)c(OCCCCCCCCCCC)c2)cc1OCCCCCCCCCCC`, the TGI is above 100 µM.

Take `CC(N)Cc1ccc(C(=O)Cl)cc1` (configuration not stated): the TGI was above 100 µM.

Consider `CC1C=C(CCCCCCCCCCCC[C@@H](O)[C@@H]2CC[C@@H]([C@@H]3CC[C@@H](C(O)CCCCCCCCCCCCC4=C[C@H](C)OC4=O)O3)O2)C(=O)O1` (some centres not stated), for which the TGI was above 100 µM.

`O=C1c2ccccc2C2C1N2C(=O)C(F)(F)F` (configuration not stated) showed a TGI above 100 µM.

In turn, `CCOC(=O)C1=C(C)NC(=S)NC1c1ccccc1` (configuration not stated) returned a TGI above 58.9 µM.

Take `CCC12C=CCN3CCC4(C(=C(C(=O)OC)[C@@H]1O)Nc1ccccc14)C32` (some centres not stated): the TGI was determined as 3.61 µM.

In turn, `CC(=O)Nc1ccc(-c2nnc(SCC(=O)Nc3ccc([N+](=O)[O-])cc3)o2)cc1` gave a TGI of 26.3 µM.

A further experiment concerns NCI-H23 lung. Kind of experiment: NCI tumour cell line growth inhibition, 48 h.
In turn, `COc1cc([C@@H]2OCC3C(c4ccc5c(c4)OCO5)OCC32)cc(OC)c1OC` (some centres not stated) displayed a TGI above 100 µM.

Take `O=C1CCC23CC(C=CC=C12)n1c(=O)n(-c2ccccc2)c(=O)n13` (configuration not stated): the TGI is above 100 µM.

For the compound `C[C@]12CC[C@H](O)CC1=CC[C@@H]1C2CC[C@]2(C)C(=O)N(N)C(=O)CC12` (some centres not stated), the TGI is above 100 µM.

Regarding `Cc1c2cnccc2c(C)c2c1c1ccccc1n2CCCN`, the GI50 is 0.165 µM; the TGI is 1.18 µM and 0.482 µM.

In turn, `[N-]=[N+]=Nc1cc(=O)oc2ccccc12` gave a TGI above 100 µM.

For the compound `CNC(=O)C(C)C1CCC2(C)C=CC(=O)C(C)=C2C1O` (configuration not stated), the TGI is above 100 µM.

Take `CCN(CC)CCC(=O)Nc1ccc2c(c1)C(=O)c1ccc(NC(=O)CCN(CC)CC)cc1C2=O`: the TGI is 23.2 µM.

The compound `CC(C)CCCCCCCCCCCCC(=O)NCC(=O)NC1C(C)OC(Nc2ncnc3c2ncn3C)C(O)C1O` (configuration not stated) had a TGI above 100 µM.

For `CCCCCCCCCCCOc1ccc(C(=O)C(=O)c2ccc(OCCCCCCCCCCC)c(OCCCCCCCCCCC)c2)cc1OCCCCCCCCCCC`, the TGI was above 100 µM.

For the compound `CC(N)Cc1ccc(C(=O)Cl)cc1` (configuration not stated), the TGI was above 100 µM.

For `CC1C=C(CCCCCCCCCCCC[C@@H](O)[C@@H]2CC[C@@H]([C@@H]3CC[C@@H](C(O)CCCCCCCCCCCCC4=C[C@H](C)OC4=O)O3)O2)C(=O)O1` (some centres not stated), the TGI is above 100 µM.

In turn, `O=C1c2ccccc2C2C1N2C(=O)C(F)(F)F` (configuration not stated) yielded a TGI above 100 µM.

For the compound `CCOC(=O)C1=C(C)NC(=S)NC1c1ccccc1` (configuration not stated), the TGI is above 100 µM.

The compound `CCC12C=CCN3CCC4(C(=C(C(=O)OC)[C@@H]1O)Nc1ccccc14)C32` (some centres not stated) showed a TGI of 3.72 µM.

`CC(=O)Nc1ccc(-c2nnc(SCC(=O)Nc3ccc([N+](=O)[O-])cc3)o2)cc1`: the TGI came to 25 µM.

A further experiment has as its system P388 leukemia. As to the kind of experiment: NCI tumour cell line growth inhibition, 48 h.
`O=C1CCC23CC(C=CC=C12)n1c(=O)n(-c2ccccc2)c(=O)n13` (configuration not stated) displayed a TGI above 100 µM.

`Cc1c2cnccc2c(C)c2c1c1ccccc1n2CCCN` returned a TGI of 0.212 µM.

As for `CNC(=O)C(C)C1CCC2(C)C=CC(=O)C(C)=C2C1O` (configuration not stated), the TGI is above 100 µM.

In the case of `CC(C)CCCCCCCCCCCCC(=O)NCC(=O)NC1C(C)OC(Nc2ncnc3c2ncn3C)C(O)C1O` (configuration not stated), the TGI is above 100 µM.

Another experiment deals with P388/ADR leukemia. As to the kind of experiment: NCI tumour cell line growth inhibition, 48 h.
Consider `O=C1CCC23CC(C=CC=C12)n1c(=O)n(-c2ccccc2)c(=O)n13` (configuration not stated), for which the TGI is above 100 µM.

For the compound `Cc1c2cnccc2c(C)c2c1c1ccccc1n2CCCN`, the TGI was determined as 0.707 µM.

As to `CNC(=O)C(C)C1CCC2(C)C=CC(=O)C(C)=C2C1O` (configuration not stated), the TGI is above 100 µM.

Regarding `CC(C)CCCCCCCCCCCCC(=O)NCC(=O)NC1C(C)OC(Nc2ncnc3c2ncn3C)C(O)C1O` (configuration not stated), the TGI was above 100 µM.

The next experiment concerns RXF-631 renal. Kind of experiment: NCI tumour cell line growth inhibition, 48 h.
For `C[C@]12CC[C@H](O)CC1=CC[C@@H]1C2CC[C@]2(C)C(=O)N(N)C(=O)CC12` (some centres not stated), the TGI was above 100 µM.

Compound `CC(N)Cc1ccc(C(=O)Cl)cc1` (configuration not stated) registered a TGI above 100 µM.

In turn, `COc1nc(N)c(C(=O)CCl)c(=O)n1C` returned a TGI of 31.6 µM.

The compound `O=C1c2ccccc2C2C1N2C(=O)C(F)(F)F` (configuration not stated) came in with a TGI above 100 µM.

In the case of `CCOC(=O)C1=C(C)NC(=S)NC1c1ccccc1` (configuration not stated), the TGI is above 100 µM.

A further experiment has as its system SN12K1 renal. Kind of experiment: NCI tumour cell line growth inhibition, 48 h.
`O=C1CCC23CC(C=CC=C12)n1c(=O)n(-c2ccccc2)c(=O)n13` (configuration not stated) yielded a TGI above 100 µM.

Regarding `Cc1c2cnccc2c(C)c2c1c1ccccc1n2CCCN`, the TGI is 0.831 µM.

Turning to `CNC(=O)C(C)C1CCC2(C)C=CC(=O)C(C)=C2C1O` (configuration not stated), the TGI is above 100 µM.

Compound `CC(C)CCCCCCCCCCCCC(=O)NCC(=O)NC1C(C)OC(Nc2ncnc3c2ncn3C)C(O)C1O` (configuration not stated) registered a TGI above 100 µM.

A further experiment deals with SNB-78 CNS. As to the kind of experiment: NCI tumour cell line growth inhibition, 48 h.
As to `COc1cc([C@@H]2OCC3C(c4ccc5c(c4)OCO5)OCC32)cc(OC)c1OC` (some centres not stated), the TGI is above 100 µM.

Regarding `O=C1CCC23CC(C=CC=C12)n1c(=O)n(-c2ccccc2)c(=O)n13` (configuration not stated), the TGI was above 100 µM.

`C[C@]12CC[C@H](O)CC1=CC[C@@H]1C2CC[C@]2(C)C(=O)N(N)C(=O)CC12` (some centres not stated) returned a TGI above 100 µM.

On to `Cc1c2cnccc2c(C)c2c1c1ccccc1n2CCCN`, for which the TGI amounted to 2.23 µM.

On to `N#CN=C(N(Cc1ccccc1)Cc1ccccc1)N(Cc1ccccc1)Cc1ccccc1`, for which the TGI was above 100 µM.

Compound `CNC(=O)C(C)C1CCC2(C)C=CC(=O)C(C)=C2C1O` (configuration not stated) yielded a TGI above 100 µM.

`CCN(CC)CCC(=O)Nc1ccc2c(c1)C(=O)c1ccc(NC(=O)CCN(CC)CC)cc1C2=O`: the TGI turned out to be 48.3 µM.

For `CC(C)CCCCCCCCCCCCC(=O)NCC(=O)NC1C(C)OC(Nc2ncnc3c2ncn3C)C(O)C1O` (configuration not stated), the TGI is above 100 µM.

The compound `CCCCCCCCCCCOc1ccc(C(=O)C(=O)c2ccc(OCCCCCCCCCCC)c(OCCCCCCCCCCC)c2)cc1OCCCCCCCCCCC` had a TGI above 100 µM.

As to `COc1nc(N)c(C(=O)CCl)c(=O)n1C`, the TGI is 40.2 µM.

`CCOC(=O)C1=C(C)NC(=S)NC1c1ccccc1` (configuration not stated) showed a TGI above 100 µM.

The compound `CCC12C=CCN3CCC4(C(=C(C(=O)OC)[C@@H]1O)Nc1ccccc14)C32` (some centres not stated) gave a TGI of 7.35 µM.

`CC(=O)Nc1ccc(-c2nnc(SCC(=O)Nc3ccc([N+](=O)[O-])cc3)o2)cc1` gave a TGI of 34.3 µM.

The subject of the next experiment is XF 498 CNS. Kind of experiment: NCI tumour cell line growth inhibition, 48 h.
`COc1cc([C@@H]2OCC3C(c4ccc5c(c4)OCO5)OCC32)cc(OC)c1OC` (some centres not stated) displayed a TGI above 100 µM.

As for `O=C1CCC23CC(C=CC=C12)n1c(=O)n(-c2ccccc2)c(=O)n13` (configuration not stated), the TGI is above 100 µM.

Compound `C[C@]12CC[C@H](O)CC1=CC[C@@H]1C2CC[C@]2(C)C(=O)N(N)C(=O)CC12` (some centres not stated) returned a TGI above 100 µM.

`Cc1c2cnccc2c(C)c2c1c1ccccc1n2CCCN` came in with a TGI of 1.4 µM.

The compound `N#CN=C(N(Cc1ccccc1)Cc1ccccc1)N(Cc1ccccc1)Cc1ccccc1` came in with a TGI of 89.8 µM.

For `CNC(=O)C(C)C1CCC2(C)C=CC(=O)C(C)=C2C1O` (configuration not stated), the TGI was above 100 µM.

Consider `CC(C)CCCCCCCCCCCCC(=O)NCC(=O)NC1C(C)OC(Nc2ncnc3c2ncn3C)C(O)C1O` (configuration not stated), for which the TGI was above 62 µM.

On to `CCCCCCCCCCCOc1ccc(C(=O)C(=O)c2ccc(OCCCCCCCCCCC)c(OCCCCCCCCCCC)c2)cc1OCCCCCCCCCCC`, for which the TGI was above 100 µM.

As to `CC(N)Cc1ccc(C(=O)Cl)cc1` (configuration not stated), the TGI was above 100 µM.

In the case of `COc1nc(N)c(C(=O)CCl)c(=O)n1C`, the TGI stood at 32.6 µM.

In turn, `CC1C=C(CCCCCCCCCCCC[C@@H](O)[C@@H]2CC[C@@H]([C@@H]3CC[C@@H](C(O)CCCCCCCCCCCCC4=C[C@H](C)OC4=O)O3)O2)C(=O)O1` (some centres not stated) showed a TGI above 100 µM.

`O=C1c2ccccc2C2C1N2C(=O)C(F)(F)F` (configuration not stated) returned a TGI above 100 µM.

Turning to `CCOC(=O)C1=C(C)NC(=S)NC1c1ccccc1` (configuration not stated), the TGI is 99.7 µM.

`CCC12C=CCN3CCC4(C(=C(C(=O)OC)[C@@H]1O)Nc1ccccc14)C32` (some centres not stated): the TGI was found to be 3.05 µM.

These data come from PubChem BioAssay (NCI).
